In patent US20110053860A1, “COX-2 function and wound healing” (priority 2001, published 2011):

Legend:
[1] = system: rat closed femur fracture model; assay: Torsional mechanical testing of fractured femurs; format: in vivo, male Sprague-Dawley rats; settings: for normalized shear stress / normalized torsional rigidity / normalized peak torque / normalized maximum shear stress: percentage of contralateral unfractured femur; for normalized shear stress: no drug 36; for Shear Modulus, mean / Peak Torque (Tmax), mean: fractured femur; for Peak Torque (Tmax), mean: not normalized; for Mal-Union (Stage III), frequency / Non-Union (Stage I/II), frequency / Union (Stage IV), frequency: mechanically tested fractured femurs at 8 weeks post-fracture; for normalized maximum shear stress: no drug 48; for effect on fracture healing at the dose and treatment regime used: daily gavage, indomethacin 1 mg/kg, celecoxib 4 mg/kg, rofecoxib 3 mg/kg
Procedure: (§1) A total of 253 male Sprague-Dawley rats (584.+−0.62 g) were fed a standard diet and kept caged separately in a constant temperature and humidity environment. All rats were 6-9 months old at the beginning of the experiment. Drugs were administered daily by gavage beginning two days prior to fracture. Animals were randomly selected for each treatment group. […] No drug (control) rats were not initially gavaged but later rats were gavaged with water and no difference was noted between the no drug rats that had been gavaged and those that had not. No statistically significant differences were found in animal weight changes during the experiments.
(§2) The rats were anesthetized by intraperitoneal injection of ketamine (40 mg/kg) and xylazine (5 mg/kg). Under aseptic conditions, a medial parapatellar incision (0.4-0.5 cm) was made in the right hindlimb and the patella was dislocated laterally. The medullary canal was entered through the intercondylar notch and reamed with an 18-gauge needle. A 1.1 mm stainless steel pin (Small Parts Inc., Miami Lakes, Fla.) was then inserted into the canal and secured in the proximal part of the greater trochanter by tamping. The distal portion of the pin was then cut flush with the femoral condyles and the patella dislocation was reduced. The soft tissue and skin were closed with 4-0 vicryl sutures. After closing, the diaphysis of the pinned femur was fractured by means of a three-point bending device as described by Bonnarens and Einhorn (Bonnarens and Einhorn 1984).
Animals within each treatment group were sacrificed at 4, 6, and 8 weeks post-fracture by CO2 asphyxiation. Animals with oblique, comminuted, or infected fractures were not used for mechanical testing. Both femora were removed and cleaned of all soft tissue leaving the fracture callus undisturbed and then immediately processed for mechanical testing. The samples were wrapped in saline soaked gauze to prevent dehydration between steps. Measurements of the femora were taken using digital calipers to determine femur length and external callus dimensions. The intramedullary pin was removed from the fractured femur and a 1 mm-diameter stainless steel pin (˜0.8 cm length) was inserted at the proximal and distal end perpendicular to the long axis of the bone to prevent slipping in the potting material. The intact femur was also pinned as described above. The femoral ends were potted in 1-inch hexnuts using a low melt temperature metal (Wood's metal, Alfa Aesar, Ward Mill, Mass.). Once potted, the gage length (L) of each femur was measured. Torsional testing was conducted using a servohydraulic testing machine (MTS, Eden, Praire, Minn.) with a 20 Nm reaction torque cell (Interface, Scottsdale, Ariz.). The testing was carried out to failure at a rate of 2°/sec and a data recording rate of 20 Hz. Both the fractured and intact femora were tested in internal rotation in proper anatomic orientation. The peak torque and angle at failure were calculated from the load-deformation curves. Internal fracture callus dimensions were measured after mechanical testing. From the callus dimensions, the polar moment of inertia (J) was calculated based upon a hollow ellipse model (Bell et al. 1941; Engesaeter et al. 1978). The equations used to derive torsional rigidity, shear stress, shear modulus, and J were as follows (Popov 1968): (1) Torsional Rigidity: (Tmax·L)/φ where Tmax is the peak torque value in Nmm, L is the gage length in mm, and φ is the angle at failure in radians. (2) Shear Stress: (Tmax·Rmax)/J where Rmax is the largest radial dimension of the fracture callus in mm (ao) and J is the polar moment of inertia. […]

[2] = male rats, single drug dose; cited from earlier work
[3] = system: rat closed femur fracture model; assay: Radiographic analysis of femur fracture healing in NSAID treated rats; format: in vivo, male Sprague-Dawley rats; settings: for average radiograph score (union 1 point, mal-union 0.5 points, non-union 0 points): 8-week post-fracture radiographs, 7 blinded observers, control rats 0.71
Procedure: A total of 253 male Sprague-Dawley rats (584.+−0.62 g) were fed a standard diet and kept caged separately in a constant temperature and humidity environment. All rats were 6-9 months old at the beginning of the experiment. Drugs were administered daily by gavage beginning two days prior to fracture. Animals were randomly selected for each treatment group.
as §2
Radiographs were made post-fracture to confirm the position and quality of each fracture and at sacrifice to determine the degree of healing. In addition several rats were selected randomly to produce serial radiographs (at least 2 rats per treatment group). Radiographs were made of these rats weekly under anesthesia until the experimental endpoint (8 weeks). Radiographs of mice were also made under anesthesia. All radiographs were made using a 43805N Faxitron (Hewlett-Packard, McMinnville, Oreg.) and Kodak MinR-2000 mammography film.
Radiographs were made immediately following fracture production and then every week till the end point of the experiments (8 weeks post-fracture).
In addition to the serial radiographs made for certain rats, all animals in this study were examined radiographically immediately post-fracture and when euthanized. A random, blinded sample of the 8-week post-fracture radiographs were independently examined by 7 observers and scored as a union (1 point), mal-union (0.5 points), or non-union (0 points).

[4] = system: rat closed femur fracture model; assay: Histology of fracture callus; format: in vivo, male Sprague-Dawley rats; settings: for histology of the healing femur fractures compared to untreated control rat: 2 weeks post-fracture; for cartilage in the fracture callus: 3 and 4 weeks post-fracture; for healing of fractured femurs by histology: 6 and 8 weeks post-fracture
Procedure: as §1, §2
Rats were sacrificed at 2, 3, 4, 6, and 8 weeks post-fracture by CO2 asphyxiation. Both femora were resected and the stainless steel pin was removed from the medullary canal. The harvested femora were fixed in 10% buffered formalin and embedded in polymethylmethacrylate following standard histological techniques for calcified tissue. The samples were sectioned sagitally through the fracture callus using an Isomet diamond saw (Buehler Ltd., Lake Bluff, Ill.), mounted on plexiglass slides, and polished to a thickness of 100 μ.m. The slides were then stained with van Gieson's picrofuchsin and Stevenel's blue in order to identify new bone growth and cartilage formation (Maniatopoulos et al. 1986). Mice femora were fixed, decalcified, paraffin embedded, sectioned, and stained with Masson's trichrome stain. The samples were viewed and photomicrographs were taken using an Olympus BH2-RFCA microscope or an Olympus SZ40 microscope.

[5] = system: rat closed femur fracture model; settings: in vivo
Source text: Experimental treatment group values were compared to the no drug values using a χ^2 analysis. Significant differences are noted with an asterisk (P<0.01).
Pin slippage is dislodgement of the intramedullary stainless steel rod used to stabilize the fracture and permit the rat to weight-bear on the fractured femur. Once fracture stability was lost, the rat was euthanized since the rat could no longer weight-bear on the femur and since the callus would be re-injured and thus alter healing. […] Animals with these complications were excluded.

[6] = humans, depending upon drug dose; cited from earlier work
[7] = target: COX-2 (Homo sapiens, UniProt P35354); settings: cited from earlier work
[8] = 6 weeks post-fracture, no drug 89
[9] = 8 weeks post-fracture, no drug 88
[10] = 8 weeks post-fracture, no drug 101

Chain of COX-2 (P35354 18-604): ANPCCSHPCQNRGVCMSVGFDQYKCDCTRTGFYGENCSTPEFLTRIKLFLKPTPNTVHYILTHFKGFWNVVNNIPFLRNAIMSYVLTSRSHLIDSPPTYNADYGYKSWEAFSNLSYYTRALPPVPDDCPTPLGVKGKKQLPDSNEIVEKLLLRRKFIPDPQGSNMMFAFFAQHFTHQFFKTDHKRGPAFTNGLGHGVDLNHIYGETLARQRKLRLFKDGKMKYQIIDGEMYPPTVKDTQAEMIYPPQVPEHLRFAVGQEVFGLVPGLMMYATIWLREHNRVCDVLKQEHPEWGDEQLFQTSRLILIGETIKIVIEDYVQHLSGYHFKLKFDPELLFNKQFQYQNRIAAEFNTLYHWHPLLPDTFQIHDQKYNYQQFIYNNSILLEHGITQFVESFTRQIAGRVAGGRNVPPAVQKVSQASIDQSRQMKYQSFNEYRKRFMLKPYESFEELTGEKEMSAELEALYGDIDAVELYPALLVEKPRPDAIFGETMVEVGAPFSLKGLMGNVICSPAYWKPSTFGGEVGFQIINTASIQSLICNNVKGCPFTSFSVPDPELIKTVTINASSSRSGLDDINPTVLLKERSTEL

Cc1ccc(-c2cc(C(F)(F)F)nn2-c2ccc(S(N)(=O)=O)cc2)cc1 [Celecoxib, celecoxib]
normalized shear stress ([1]; 6 weeks post-fracture): 22% | normalized torsional rigidity [1, 8]: 50% | Shear Modulus, mean ([1]; 4 wks): 0.3 GPa | Peak Torque (Tmax), mean ([1]; 4 wks): 302 Nmm | Shear Modulus, mean ([1]; 6 wks): 0.9 GPa | Peak Torque (Tmax), mean ([1]; 6 wks): 567 Nmm | Shear Modulus, mean ([1]; 8 wks): 1.7 GPa | Peak Torque (Tmax), mean ([1]; 8 wks): 620 Nmm | Mal-Union (Stage III), frequency [1]: 3 | Non-Union (Stage I/II), frequency [1]: 3 | Union (Stage IV), frequency [1]: 0 | rats tested whose fractured femurs healed as mal-unions rather than non-unions ([1]; rat, in vivo): approximately 50% | estimated plasma half-life [2]: approximately 4 hours | average radiograph score (union 1 point, mal-union 0.5 points, non-union 0 points) [3]: 0.49

COc1ccc2c(c1)c(CC(=O)O)c(C)n2C(=O)c1ccc(Cl)cc1 [Indomethacin, indomethacin]
histology of the healing femur fractures compared to untreated control rat [4]: gross abnormalities | cartilage in the fracture callus [4]: presence of cartilage | healing of fractured femurs by histology [4]: appeared to be healing | normalized shear stress ([1]; 6 weeks post-fracture): 15% | normalized peak torque ([1]; 6 weeks post-fracture, no drug 77): 46% | normalized torsional rigidity [1, 8]: 34% | normalized maximum shear stress ([1]; 8 weeks post-fracture): not significantly different | normalized torsional rigidity [1, 9]: not significantly different | normalized peak torque [1, 10]: not significantly different | effect on fracture healing at the dose and treatment regime used [1]: delays, but does not prevent fracture healing | Shear Modulus, mean ([1]; 4 wks): 0.3 GPa | Peak Torque (Tmax), mean ([1]; 4 wks): 417 Nmm | Shear Modulus, mean ([1]; 6 wks): 0.4 GPa | Peak Torque (Tmax), mean ([1]; 6 wks): 357 Nmm | Shear Modulus, mean ([1]; 8 wks): 1.8 GPa | Peak Torque (Tmax), mean ([1]; 8 wks): 469 Nmm | Mal-Union (Stage III), frequency [1]: 1 | Non-Union (Stage I/II), frequency [1]: 1 | Union (Stage IV), frequency [1]: 6 | average radiograph score (union 1 point, mal-union 0.5 points, non-union 0 points) [3]: 0.54 | bridging of the fracture gap (time post fracture) ([3]; radiography, untreated rats approximately 4-5 weeks): 5-6 weeks

CS(=O)(=O)c1ccc(C2=C(c3ccccc3)C(=O)OC2)cc1 [Rofecoxib, rofecoxib]
histology of the healing femur fractures compared to untreated control rat [4]: gross abnormalities | cartilage in the fracture callus [4]: little or no cartilage was evident | healing of fractured femurs by histology [4]: no further healing was evident | bone resorption at the distal ends of the fracture bones ([4]; rat, in vivo): massive bone resorption event | normalized maximum shear stress ([1]; 8 weeks post-fracture): 18% | normalized torsional rigidity [1, 9]: 31% | normalized peak torque [1, 10]: 50% | effect on fracture healing at the dose and treatment regime used [1]: stops fracture healing | Shear Modulus, mean ([1]; 4 wks): 0.2 GPa | Peak Torque (Tmax), mean ([1]; 4 wks): 250 Nmm | Shear Modulus, mean ([1]; 6 wks): 0.3 GPa | Peak Torque (Tmax), mean ([1]; 6 wks): 383 Nmm | Shear Modulus, mean ([1]; 8 wks): 0.5 GPa | Peak Torque (Tmax), mean ([1]; 8 wks): 338 Nmm | Mal-Union (Stage III), frequency [1]: 1 | Non-Union (Stage I/II), frequency [1]: 4 | Union (Stage IV), frequency [1]: 0 | mechanical properties of the fractured femurs compared to no drug rats ([1]; rofecoxib: 8 weeks post-fracture, all values measured or derived): significantly less | infection rate as compared to the no drug rats [5]: statistically significant higher | pin slippage, rats having to be euthanized prior to the endpoint ([5]; male, Sprague-Dawley): ≤ 30% | estimated plasma half-life [2]: ~5 h | plasma half-life [6]: 10 to 17 h | selectivity for COX-2 relative to COX-1 [7]: ~35 fold | formation of an X-ray dense hard callus ([3]; 2 and 4 week post-fracture radiographs): did not prevent | average radiograph score (union 1 point, mal-union 0.5 points, non-union 0 points) [3]: 0.32 | original fracture on radiograph ([3]; after 8 weeks): still plainly evident
